IC50 data for 26 molecules are collected here from patent US9765074B2, “Inhibitors of the renal outer medullary potassium channel” (Merck Sharp & Dohme Corp., priority 2013, dated 2017).

The structures appear in SMILES notation.

As a reminder, the IC50 is the concentration that gives 50% inhibition. High values mean lower potency, low ones higher potency.

The test concerns the target T1, hROMK (hKir1.1) (Homo sapiens, UniProt P48048).
T1 construct: expressed in transfected cells
T1 sequence (P48048 1-391): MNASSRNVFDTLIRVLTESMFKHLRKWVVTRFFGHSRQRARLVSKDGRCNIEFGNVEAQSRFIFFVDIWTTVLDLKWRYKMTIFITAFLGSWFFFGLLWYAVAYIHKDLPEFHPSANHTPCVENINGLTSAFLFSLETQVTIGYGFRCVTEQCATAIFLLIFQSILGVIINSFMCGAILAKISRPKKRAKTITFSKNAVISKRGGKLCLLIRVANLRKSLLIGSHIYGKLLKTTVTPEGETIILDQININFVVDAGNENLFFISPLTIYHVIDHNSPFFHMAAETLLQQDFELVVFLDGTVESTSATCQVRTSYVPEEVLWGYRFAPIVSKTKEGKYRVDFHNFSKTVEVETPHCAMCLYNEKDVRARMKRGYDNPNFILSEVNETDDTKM
Kind of test: Thallium Flux Assay (ROMK channel functional thallium flux, FLIPR-Tetra). The settings on record: HEK293 cells stably expressing hROMK (hKir1.1); 30 min compound incubation. It counts as cell-based. The gist of the method:
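Thallium flux read by FluxOR fluorescence ([…]) for ~10 min after adding 3 mM Tl+/0.3 mM K+ final. Stable HEK-hKir1.1 cells were dye-loaded 90 min, exposed to compound 30 min at room temperature in ouabain/probenecid buffer; IC50 relative to a 3 μM control inhibitor.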
In turn, `CC1=C(N2CCC3(CCN(C[C@H](O)c4ccc(-n5cnnn5)nc4C)CC3O)C2=O)COC1=O` (single isomer, unassigned) [Example 203] returned a concentration for half-maximal inhibition (IC50) of 150 nM.

Regarding `O=C1C=C(N2C(=O)C3(CCN(C[C@H](O)c4cnc(-n5cnnn5)cn4)CC3)CC2CF)CO1` (single isomer, unassigned) [Example 204], the concentration for half-maximal inhibition (IC50) was 300 nM.

`O=C1C=C(N2C(=O)C3(CCN(C[C@H](O)c4cnc(-n5cnnn5)cn4)CC3)CC2CF)CO1` (single isomer, unassigned) [Example 205] had an IC50 of 30 nM.

With `CC1OC(=O)C=C1N1C(=O)C2(CCN(C[C@H](O)c3ccc(-n4cnnn4)nc3)CC2)C[C@@H]1C` (single isomer, unassigned) [Example 228], the 50% inhibitory concentration (IC50) stood at 20 nM. Compared with the last molecule, the IC50 is about 1.5-fold lower.

In turn, `CC1OC(=O)C=C1N1C(=O)C2(CCN(C[C@H](O)c3ccc(-n4cnnn4)nc3)CC2)C[C@@H]1C` (single isomer, unassigned) [Example 229] showed an IC50 of 280 nM. This IC50 is about 14-fold higher than that of the molecule before.

In turn, `CC1OC(=O)C=C1N1C(=O)C2(CCN(C[C@H](O)c3ccc(-n4cnnn4)nc3)CC2)C[C@H]1C` (single isomer, unassigned) [Example 230] displayed an IC50 of 80 nM.

In the case of `CC1OC(=O)C=C1N1C(=O)C2(CCN(C[C@H](O)c3ccc(-n4cnnn4)nc3)CC2)C[C@H]1C` (single isomer, unassigned) [Example 231], the half-inhibitory concentration (IC50) amounted to 1530 nM.

On to `CC1CC2(CCN(CCc3cnc(-n4cnnn4)cn3)CC2)C(=O)N1C1=CC(=O)OC1` (single isomer, unassigned) [Example 242, 3-methyl-1-oxo-2-(5-oxo-2,5-dihydrofuran-3-yl)-8-{2-[5-(1H-tetrazol-1-yl)pyrazin-2-yl]ethyl}-2-aza-8-azoniaspiro[4.5]decane], for which the IC50 stood at 40 nM.

The molecule `CC1=C(N2CC(O)C3(CCN(CCc4ccc(-n5cnnn5)nn4)CC3)C2=O)COC1=O` (single isomer, unassigned) [Example 243, 4-hydroxy-2-(4-methyl-5-oxo-2,5-dihydrofuran-3-yl)-1-oxo-8-{2-[6-(1H-tetrazol-1-yl)pyridazin-3-yl]ethyl}-2-aza-8-azoniaspiro[4.5]decane] yielded an IC50 of 210 nM.

`CC1=C(N2CC(O)C3(CCN(CCc4ccc(-n5cnnn5)nc4)CC3)C2=O)COC1=O` (single isomer, unassigned) [Example 244, 4-hydroxy-2-(4-methyl-5-oxo-2,5-dihydrofuran-3-yl)-1-oxo-8-{2-[6-(1H-tetrazol-1-yl)pyridin-3-yl]ethyl}-2-aza-8-azoniaspiro[4.5]decane] returned an IC50 of 30 nM.

Regarding `CC1=C(N2CC(O)C3(CCN(CCc4ccc(-n5cnnn5)nc4)CC3)C2=O)COC1=O` (single isomer, unassigned) [Example 245, 4-hydroxy-2-(4-methyl-5-oxo-2,5-dihydrofuran-3-yl)-1-oxo-8-{2-[6-(1H-tetrazol-1-yl)pyridin-3-yl]ethyl}-2-aza-8-azoniaspiro[4.5]decane], the IC50 was determined as 20 nM.

Molecule `COC1CN(CCc2ccc(-n3cnnn3)nn2)CCC12CCN(C1=C(C)C(=O)OC1)C2=O` (single isomer, unassigned) [Example 257, 6-methoxy-2-(4-methyl-5-oxo-2,5-dihydrofuran-3-yl)-8-{2-[6-(1H-tetrazol-1-yl)pyridazin-3-yl]ethyl}-2,8-diazaspiro[4.5]decan-1-one] displayed a half-maximal inhibitory concentration (IC50) of 100 nM. This IC50 is about 5-fold higher than that of the molecule before.

On to `COC1CN(CCc2ccc(-n3cnnn3)nn2)CCC12CCN(C1=C(C)C(=O)OC1)C2=O` (single isomer, unassigned) [Example 258, 6-methoxy-2-(4-methyl-5-oxo-2,5-dihydrofuran-3-yl)-8-{2-[6-(1H-tetrazol-1-yl)pyridazin-3-yl]ethyl}-2,8-diazaspiro[4.5]decan-1-one], for which half-maximal inhibition (IC50) was put at 120 nM.

On to `COC1CN(CCc2nnc(-n3cnnn3)cc2C)CCC12CCN(C1=C(C)C(=O)OC1)C2=O` (single isomer, unassigned) [Example 259, 6-methoxy-2-(4-methyl-5-oxo-2,5-dihydrofuran-3-yl)-8-{2-[4-methyl-6-(1H-tetrazol-1-yl)pyridazin-3-yl]ethyl}-2,8-diazaspiro[4.5]decan-1-one], for which the IC50 came out at 100 nM.

`COC1CN(CCc2nnc(-n3cnnn3)cc2C)CCC12CCN(C1=C(C)C(=O)OC1)C2=O` (single isomer, unassigned) [Example 260, 6-methoxy-2-(4-methyl-5-oxo-2,5-dihydrofuran-3-yl)-8-{2-[4-methyl-6-(1H-tetrazol-1-yl)pyridazin-3-yl]ethyl}-2,8-diazaspiro[4.5]decan-1-one] showed an IC50 of 120 nM.

As to `CC1=C(N2CCC3(CCN(CCc4ccc(-n5cnnn5)nn4)CC3F)C2=O)COC1=O` (single isomer, unassigned) [Example 265, 6-fluoro-2-(4-methyl-5-oxo-2,5-dihydrofuran-3-yl)-8-{2-[6-(1H-tetrazol-1-yl)pyridazin-3-yl]ethyl}-2,8-diazaspiro[4.5]decan-1-one], the half-inhibitory concentration (IC50) was 10 nM. This IC50 is about 12-fold lower than that of the molecule before.

Consider `CC1=C(N2CCC3(CCN(CCc4ccc(-n5cnnn5)nn4)CC3F)C2=O)COC1=O` (single isomer, unassigned) [Example 266, 6-fluoro-2-(4-methyl-5-oxo-2,5-dihydrofuran-3-yl)-8-{2-[6-(1H-tetrazol-1-yl)pyridazin-3-yl]ethyl}-2,8-diazaspiro[4.5]decan-1-one], for which the half-maximal inhibitory concentration (IC50) came out at 10 nM.

Turning to `CC1=C(N2CCC3(CCN(CCc4nnc(-n5cnnn5)cc4C)CC3F)C2=O)COC1=O` (single isomer, unassigned) [Example 267, 6-fluoro-2-(4-methyl-5-oxo-2,5-dihydrofuran-3-yl)-8-{2-[4-methyl-6-(1H-tetrazol-1-yl)pyridazin-3-yl]ethyl}-2,8-diazaspiro[4.5]decan-1-one], the IC50 turned out to be 10 nM.

Take `CC1=C(N2CCC3(CCN(CCc4nnc(-n5cnnn5)cc4C)CC3F)C2=O)COC1=O` (single isomer, unassigned) [Example 268, 6-fluoro-2-(4-methyl-5-oxo-2,5-dihydrofuran-3-yl)-8-{2-[4-methyl-6-(1H-tetrazol-1-yl)pyridazin-3-yl]ethyl}-2,8-diazaspiro[4.5]decan-1-one]: 10 nM corresponded to half-maximal inhibition (IC50).

As for `CC1=C(N2C=CC3(CCN([C@@H](C)Cc4ccc(-n5cnnn5)nn4)CC3)C2=O)COC1=O` (single isomer, unassigned) [Example 272], inhibition was half-maximal at 10 nM (IC50).

Turning to `CC1=C(N2C=CC3(CCN([C@H](C)Cc4ccc(-n5cnnn5)nn4)CC3)C2=O)COC1=O` (single isomer, unassigned) [Example 273], 4 nM corresponded to half-maximal inhibition (IC50).

Take `CC1=C(N2C=CC3(CCN([C@@H](C)Cc4nnc(-n5cnnn5)cc4C)CC3)C2=O)COC1=O` (single isomer, unassigned) [Example 274]: the 50% inhibitory concentration (IC50) was determined as 10 nM.

`CC1=C(N2C=CC3(CCN([C@H](C)Cc4nnc(-n5cnnn5)cc4C)CC3)C2=O)COC1=O` (single isomer, unassigned) [Example 275] had a half-maximal inhibitory concentration (IC50) of 4 nM. This IC50 is about 2.5-fold lower than that of the molecule before.

For `CO[C@H](CN1CCC2(CC1)C[C@@H](C)N(C1=CC(=O)OC1)C2=O)c1cnc(-n2cnnn2)cn1` (single isomer, unassigned) [Example 286], the IC50 is 60 nM.

In turn, `CC1=C(N2CCC3(CCN(C[C@H](C)c4ccc(-n5cnnn5)nn4)CC3)C2=O)COC1=O` (single isomer, unassigned) [Example 290] gave an IC50 of 90 nM.

The molecule `CC1=C(N2CCC3(CCN(C[C@@H](C)c4ccc(-n5cnnn5)nn4)CC3)C2=O)COC1=O` (single isomer, unassigned) [Example 291] came in with a half-inhibitory concentration (IC50) of 80 nM.
